Assay results from US9573954B2, “Pyrazolopyrimidine compounds” (University Health Network, priority 2012, dated 2017).
Like-named read-outs stand apart in the source and are kept apart here.

Assays:
[1] = system: Ovarian 2393A tumor initiating cells; assay: Tumor-initiating cell growth inhibition, Alamar Blue assay, ovarian TICs; assay type: cell-based; conditions: 144 h, ovarian TICs, 6 days, Alamar Blue, read-out: Tumor Initiating Cell GI50 Range Ovarian 2393A
Outline: (§1)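 Colon TICs (4,000/well, non-TC plates) and ovarian TICs (1,000/well, TC plates) kept in serum-free DMEM:F12 with B-27, heparin, bFGF and EGF. Compound added after 24 h at 0.1% DMSO, then 9 days (colon) or 6 days (ovarian) at 37° C. GI50 from Alamar Blue fluorescence (ex 544/em 590) after 4 h.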

[2] = system: breast cancer cells (MDA-MB-231); assay: Cancer cell line growth inhibition, Sulforhodamine B assay, MDA-MB-231; assay type: cell-based; conditions: Homo sapiens, 120 h; Table 2; MDA-MB-231, 5 days, SRB; read-out: Cancer Cell Line GI50 Range MDA-MB-231
Protocol: (§2) Breast cancer cells (MDA-MB-231 and MDA-MB-468), colon cancer cells (HCT116) and ovarian cancer cells (PA-1 and OVCAR-3) were seeded (1000 to 4000 in 80 μl per well depending on the cell growth rate) into 96 well plates 24 hours before compound overlay. Compounds were prepared as 10 mM stock solutions in 100% DMSO which were diluted with DMEM (Dulbecco's Modified Eagle's Medium) cell growth Medium (Invitrogen, Burlington, ON, Canada) containing 10% FBS (Fetal Bovine Serum) to concentrations ranging from 50 nM to 250 μM. Aliquots (20 μl) from each concentration were overlaid to 80 μl of the pre-seeded cells in the 96 well plates to make final concentrations of 10 nM to 50 μM. The cells were cultured for 5 days before the Sulforhodamine B assay (SRB) was performed to determine the compound's cell growth inhibition activity.
(§3) Sulforhodamine B (purchased from Sigma, Oakville, ON, Canada) is a water-soluble dye that binds to the basic amino acids of the cellular proteins. Thus, colorimetric measurement of the bound dye provides an estimate of the total protein mass that is related to the cell number. the cells are fixed in situ by gently aspirating off the culture media and adding 50 μl ice cold 10% Trichloroacetic Acid (TCA) per well and incubate at 4° C. for 30-60 min, The plates are washed with H2O five times and allowed to air dry for 5 min. Addition of 50 μl 0.4% (w/v) SRB solution in 1% (v/v) acetic acid to each well and incubation for 30 min at RT completes the staining reaction. Following staining, plates are washed four times with 1% acetic acid to remove unbound dye and then allowed to air dry for 5 min. The stain is solubilized with 100 μl of 10 mM Tris pH 10.5 per well. Absorbance is read at 570 nm.
(§4) The percentage (%) of relative growth inhibition was calculated by comparing to DMSO treated only cells (100%). GI50's were determined for compounds with cytotoxic activity. The GI50 was calculated using GraphPad PRISM software (GraphPad Software, Inc., San Diego, Calif., USA).
(§5) In Table 2 below, GI50 value ranges for compound examples against breast cancer cell lines (MDA-MB-231), colon cancer cell lines (HCT116) and ovarian cancer cell lines (PA-1) are given.

[3] = system: Colon 12 tumor initiating cells; assay: Tumor-initiating cell growth inhibition, Alamar Blue assay, colon TICs; assay type: cell-based; conditions: 216 h, colon TICs, 9 days, Alamar Blue, read-out: Tumor Initiating Cell GI50 Range Colon 12
Outline: as §1

[4] = target: T1, human TTK (Homo sapiens, UniProt P33981); assay: TTK inhibition assay (indirect ELISA); assay type: biochemical; conditions: 16 μM ATP (asterisk), read-out: TTK IC50 Range
T1 construct: Active TTK was purchased from Invitrogen as an amino terminal GST fusion of full length human TTK; purchased Invitrogen
T1 sequence (P33981 1-857): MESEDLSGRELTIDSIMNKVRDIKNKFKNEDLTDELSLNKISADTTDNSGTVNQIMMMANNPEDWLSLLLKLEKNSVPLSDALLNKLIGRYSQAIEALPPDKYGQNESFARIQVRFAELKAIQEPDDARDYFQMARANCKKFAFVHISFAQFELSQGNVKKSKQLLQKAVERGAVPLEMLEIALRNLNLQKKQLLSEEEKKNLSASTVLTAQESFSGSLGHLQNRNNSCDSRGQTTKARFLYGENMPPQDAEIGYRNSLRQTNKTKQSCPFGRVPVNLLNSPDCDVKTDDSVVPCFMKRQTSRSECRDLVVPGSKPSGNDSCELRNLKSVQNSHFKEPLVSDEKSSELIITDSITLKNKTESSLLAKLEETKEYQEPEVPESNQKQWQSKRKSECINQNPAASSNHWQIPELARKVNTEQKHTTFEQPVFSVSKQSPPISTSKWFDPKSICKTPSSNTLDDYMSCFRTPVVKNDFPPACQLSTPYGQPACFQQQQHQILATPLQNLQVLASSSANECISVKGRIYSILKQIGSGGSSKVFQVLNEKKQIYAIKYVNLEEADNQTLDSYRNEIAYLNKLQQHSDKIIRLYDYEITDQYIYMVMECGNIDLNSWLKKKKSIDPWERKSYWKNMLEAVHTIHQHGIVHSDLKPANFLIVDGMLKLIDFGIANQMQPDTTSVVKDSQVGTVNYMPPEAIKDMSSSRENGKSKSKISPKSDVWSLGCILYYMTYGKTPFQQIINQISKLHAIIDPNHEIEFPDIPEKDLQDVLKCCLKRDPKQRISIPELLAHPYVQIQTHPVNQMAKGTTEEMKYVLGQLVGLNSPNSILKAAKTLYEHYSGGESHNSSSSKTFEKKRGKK
Outline: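 Activity detected by indirect ELISA after compounds sat with full-length GST-TTK for 5 min prior to starting the reaction with ATP. IC50 came from a four-parameter logistic curve of % inhibition, calculated against background and uninhibited control wells.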

[5] = system: colon cancer cells (HCT116); assay: Cancer cell line growth inhibition, Sulforhodamine B assay, HCT116; assay type: cell-based; conditions: Homo sapiens, HCT-116, 120 h, HCT116, 5 days, SRB, read-out: Cancer Cell Line GI50 Range HCT116
Outline: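 GI50 is calculated from growth inhibition relative to DMSO controls, using TCA-fixed, SRB-stained protein mass read at 570 nm. Compound, 10 nM–50 μM final in 10% FBS DMEM, was applied for 5 days to HCT116 cells that had been plated 24 h before at 1000–4000/well.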

[6] = system: ovarian cancer cells (PA-1); assay: Cancer cell line growth inhibition, Sulforhodamine B assay, PA-1; assay type: cell-based; conditions: 120 h, PA-1, 5 days, SRB, read-out: Cancer Cell Line GI50 Range PA-1
Protocol: as §2, §3, §4
In Table 1 below, GI50 value ranges for compound examples against breast cancer cell lines (MDA-MB-468), colon cancer cell lines (HCT116) and ovarian cancer cell lines (PA-1) are given.
as §5

[7] = system: breast cancer cells (MDA-MB-468); assay: Cancer cell line growth inhibition, Sulforhodamine B assay, MDA-MB-468; assay type: cell-based; conditions: Homo sapiens, MDA-MB-468, 120 h, Table 1; MDA-MB-468, 5 days, SRB; read-out: Cancer Cell Line GI50 Range MDA-MB-468
Outline: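 Sulforhodamine B staining (TCA-fixed, read at 570 nm) estimates cell mass after 5-day compound treatment of MDA-MB-468 cells, final concentrations 10 nM to 50 μM in 10% FBS DMEM. GI50 derived from growth inhibition versus DMSO controls.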

Compound | GI50 ([1]; Table 2) | GI50 [2] | GI50 ([3]; Table 2) | IC50 ([4]; Table 2) | GI50 ([5]; Table 2) | GI50 ([6]; Table 2) | GI50 ([1]; Table 1) | GI50 ([3]; Table 1) | IC50 ([4]; Table 1) | GI50 [7] | GI50 ([5]; Table 1) | GI50 ([6]; Table 1)
CCC(CO)Nc1cc(NCC2CCOCC2)n2ncc(-c3ccc(C(=O)NC4CC4)c(C)c3)c2n1 (stereo in doubt) [Example B29, (R)-N-cyclopropyl-4-(5-((1-hydroxybutan-2-yl)amino)-7-(((tetrahydro-2H-pyran-4-yl)methyl)amino)pyrazolo[1,5-a]pyrimidin-3-yl)-2-methylbenzamide] | > 0.5 µM | > 0.5 µM | 0.1 to 0.5 µM | < 0.1 µM | 0.1 to 0.5 µM | 0.1 to 0.5 µM | – | – | – | – | – | –
Cc1cc(-c2cnn3c(NCC4CCOCC4)cc(NCC(C)(C)O)nc23)ccc1C(=O)NC1CC1 [Example B10, N-cyclopropyl-4-(5-((2-hydroxy-2-methylpropyl)amino)-7-(((tetrahydro-2H-pyran-4-yl)methyl)amino)pyrazolo[1,5-a]pyrimidin-3-yl)-2-methylbenzamide] | – | > 0.5 µM | – | < 0.1 µM | 0.1 to 0.5 µM | 0.1 to 0.5 µM | – | – | – | – | – | –
Cc1cc(-c2cnn3c(NCC4CCOCC4)cc(N4CCOCC4)nc23)ccc1C(=O)NC1CC1 [Example B11, N-cyclopropyl-2-methyl-4-(5-morpholino-7-(((tetrahydro-2H-pyran-4-yl)methyl)amino)pyrazolo[1,5-a]pyrimidin-3-yl)benzamide] | – | 0.1 to 0.5 µM | – | < 0.1 µM | 0.1 to 0.5 µM | 0.1 to 0.5 µM | – | – | – | – | – | –
Cc1cc(-c2cnn3c(NCCC4CCOCC4)cc(Oc4cccnc4)nc23)ccc1C(=O)NC1CC1 [Example B22, N-cyclopropyl-2-methyl-4-(5-(pyridin-3-yloxy)-7-((2-(tetrahydro-2H-pyran-4-yl)ethyl)amino)pyrazolo[1,5-a]pyrimidin-3-yl)benzamide] | – | ≤ 0.1 µM | – | < 0.1 µM | ≤ 0.1 µM | ≤ 0.1 µM | – | – | – | – | – | –
Cc1cc(-c2cnn3c(NCC(C)C)cc(Oc4cccnc4)nc23)ccc1C(=O)NC1CC1 [Example B25, N-cyclopropyl-4-(7-(isobutylamino)-5-(pyridin-3-yloxy)pyrazolo[1,5-a]pyrimidin-3-yl)-2-methylbenzamide] | – | ≤ 0.1 µM | – | < 0.1 µM | ≤ 0.1 µM | ≤ 0.1 µM | – | – | – | – | – | –
Cc1cc(-c2cnn3c(NCC(C)C)cc(NC4CCOCC4)nc23)ccc1C(=O)NC1CC1 [Example B26, N-cyclopropyl-4-(7-(isobutylamino)-5-((tetrahydro-2H-pyran-4-yl)amino)pyrazolo[1,5-a]pyrimidin-3-yl)-2-methylbenzamide] | – | 0.1 to 0.5 µM | – | < 0.1 µM | ≤ 0.1 µM | ≤ 0.1 µM | – | – | – | – | – | –
Cc1cc(-c2cnn3c(NC[C@H]4CC[C@H](O)CC4)cc(Oc4ccccc4)nc23)ccc1C(=O)NC1CC1 [Example B31, N-cyclopropyl-4-(7-((((1r,4r)-4-hydroxycyclohexyl)-methyl)amino)-5-phenoxypyrazolo[1,5-a]pyrimidin-3-yl)-2-methylbenzamide] | – | ≤ 0.1 µM | – | < 0.1 µM | ≤ 0.1 µM | ≤ 0.1 µM | – | – | – | – | – | –

Further lines, results first:

GI50 ([1]; Table 2) | GI50 [2] | GI50 ([3]; Table 2) | IC50 ([4]; Table 2) | GI50 ([5]; Table 2) | GI50 ([6]; Table 2) | GI50 ([1]; Table 1) | GI50 ([3]; Table 1) | IC50 ([4]; Table 1) | GI50 [7] | GI50 ([5]; Table 1) | GI50 ([6]; Table 1) | Compound
– | – | – | – | – | – | > 0.5 µM | > 0.5 µM | < 0.1 µM | > 0.5 µM | 0.1 to 0.5 µM | 0.1 to 0.5 µM | O=C(NC1CC1)c1ccc(-c2cnn3c(NCC4CCOCC4)nc(OC4CCOCC4)nc23)cc1Cl [Example A14, 2-chloro-N-cyclopropyl-4-(4-(((tetrahydro-2H-pyran-4-yl)methyl)amino)-2-((tetrahydro-2H-pyran-4-yl)oxy)pyrazolo[1,5-a][1,3,5]triazin-8-yl)benzamide]
– | – | – | – | – | – | 0.1 to 0.5 µM | 0.1 to 0.5 µM | < 0.1 µM | > 0.5 µM | 0.1 to 0.5 µM | 0.1 to 0.5 µM | O=C(NC1CC1)c1ccc(-c2cnn3c(NCC4CCOCC4)nc(NC4CCCC4)nc23)cc1 [Example A15, 4-(2-(cyclopentylamino)-4-(((tetrahydro-2H-pyran-4-yl)methyl)amino)pyrazolo[1,5-a][1,3,5]triazin-8-yl)-N-cyclopropylbenzamide]
– | 0.1 to 0.5 µM | – | < 0.1 µM | ≤ 0.1 µM | ≤ 0.1 µM | – | – | – | – | – | – | Cc1cc(-c2cnn3c(NCC4CCOCC4)cc(OC4CCCC4)nc23)ccc1C(=O)NC1CC1 [Example B21, 4-(5-(cyclopentyloxy)-7-(((tetrahydro-2H-pyran-4-yl)methyl)amino)pyrazolo[1,5-a]pyrimidin-3-yl)-N-cyclopropyl-2-methylbenzamide]
– | 0.1 to 0.5 µM | – | < 0.1 µM | 0.1 to 0.5 µM | 0.1 to 0.5 µM | – | – | – | – | – | – | Cc1cc(-c2cnn3c(NCC4CCOCC4)cc(OC4CCCCC4)nc23)ccc1C(=O)NC1CC1 [Example B23, 4-(5-(cyclohexyloxy)-7-(((tetrahydro-2H-pyran-4-yl)methyl)amino)pyrazolo[1,5-a]pyrimidin-3-yl)-N-cyclopropyl-2-methylbenzamide]
– | ≤ 0.1 µM | – | < 0.1 µM | ≤ 0.1 µM | ≤ 0.1 µM | – | – | – | – | – | – | Cc1cc(-c2cnn3c(NCC4CCOCC4)cc(NC4CCCCC4)nc23)ccc1C(=O)NC1CC1 [Example B24, 4-(5-(cyclohexylamino)-7-(((tetrahydro-2H-pyran-4-yl)methyl)amino)pyrazolo[1,5-a]pyrimidin-3-yl)-N-cyclopropyl-2-methylbenzamide]
